Drawing on US6596772B1, “Phosphate mimics and methods of treatment using phosphatase inhibitors” (Sugen, Inc., priority 1999, dated 2003), this text covers IC50 for 14 compounds.

What all share (assay): PTP IC50 assay, pNPP or FDP as substrate
Assay type in all cases: biochemical

One test concerns the target T1, PTP SHP2 (Homo sapiens, UniProt Q06124).
T1 construct: The catalytic domain was amplified using the following oligonucleotides; made in house; host or cells: Sf-9 insect cells (pFastBac-G2T)
T1 sequence (Q06124 247-517 limits assumed): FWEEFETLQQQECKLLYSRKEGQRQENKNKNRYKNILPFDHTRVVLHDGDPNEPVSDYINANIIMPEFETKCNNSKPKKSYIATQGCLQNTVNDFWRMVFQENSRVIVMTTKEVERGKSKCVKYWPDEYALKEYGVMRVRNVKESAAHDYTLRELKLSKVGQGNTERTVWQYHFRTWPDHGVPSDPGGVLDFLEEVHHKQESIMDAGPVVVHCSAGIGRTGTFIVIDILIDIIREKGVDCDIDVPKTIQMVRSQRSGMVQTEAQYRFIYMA
The note with it: 25° C. How it is done: (§1) The following in vitro assay procedure is preferred to determine the level of activity and effect of the different compounds of the present invention on one or more of the PTPs. Similar assays can be designed along the same lines for any PTP using techniques well known in the art.
(§2) The catalytic assays described herein are performed in a 96-well format. The general procedure begins with the determination of PTP optimal pH using a three-component buffer system that minimizes ionic strength variations across a wide range of buffer pH. Next, the Michaelis-Menten constant, or Km, is determined for each specific substrate-PTP system. This Km value is subsequently used as the substrate reaction concentration for compound screening. Finally, the test PTP is exposed to varying concentrations of compound for fifteen minutes and allowed to react with substrate for ten minutes. The results are plotted as percent inhibition versus compound concentration and the IC50 interpolated from the plot.
(§3) All assays were performed using pNPP or FDP as substrate. The optimum pH was determined for each PTP used.
(§4) PTPase activity was assayed at 25° C. in a 100-μl reaction mixture containing an appropriate concentration of pNPP or FDP as substrate. The reaction was initiated by addition of the PTP and quenched after 10 min by addition of 50 μl of IN NaOH. The non-enzymatic hydrolysis of the substrate was corrected by measuring the control without the addition of the enzyme. The amount of p-nitrophenol produced was determined from the absorbance at 410 nm. To determine the kinetic parameter, Km, the initial velocities were measured at various substrate concentrations and the data were fitted to the Michaelis equation where velocity=(Vmax*[S])/(Km+[S]), and [S]=substrate reaction concentration.
(§5) The effect of the compounds on PTP was evaluated at 25° C. using pNPP or FDP as substrate. PTP was pre-incubated for fifteen minutes with various concentrations of compound. Substrate was then added at a fixed concentration (usually equal to the Km previously calculated). After 10 minutes, NaOH was added to stop the reaction. The hydrolysis of pNPP was followed at 410 nm on the Biotek Powerwave 200 microplate scanning spectrophotometer. The percent inhibition was calculated as follows: Percent Inhibition=[(control signal−compound signal)/control signal] ×100%. The IC50 was then determined by interpolation of a percent inhibition versus compound concentration plot.
(§6) Plasmids designed for bacterial GST-PTP fusion protein expression were derived by insertion of PCR-generated human PTP fragments into pGEX vectors (Pharmacia Biotech). Several of these constructs were then used to subclone phosphatases into pFastBac-1for expression in Sf-9 insect cells. Oligonucleotides used for the initial amplification of PTP genes are shown below. The cDNAs were prepared using the Gilbo BRL superscript preamplification system on RNAs purchased from Clontech.
SHP-2 cDNA was used as described earlier (Vogel W., et al.,1993, Science, 259:1611-4). The catalytic domain was amplified using the following oligonucleotides 5′oligo: 5′-[…]-3′ (SEQ ID NO: 2) 3′oligo: 5′-[…]-3′ (SEQ ID NO: 3) and subsequently subcloned into BamH1-Xba-1 sites. It was then ligated into pfas Bac-G2T BamH1-Xba-1 sites.

The target of another test is T2, PTP EPSILON (Homo sapiens, UniProt P23469).
T2 construct: made in house; host or cells: Sf-9 insect cells (pFastBac-G2T); a pGEX 6P-1 construct also existed
The note with it: pNPP or FDP as substrate, 25° C. The procedure:
as §1, §2, §3, §4, §5, §6
The PTPepsilon cDNA was amplified from human placenta single-strand cDNA (Clontech RNA) using the following oligonucleotides: 5′oligo: 5′-[…]-3′ (SEQ ID NO: 6) 3′oligo: 5′-[…]-3′ (SEQ ID NO: 7) After cloning this PCR product into the Bam HI/Xho I sites of pGEX 6P-1, this phosphatase was subcloned using the same restriction sites in pFastBac-G2T.

In another test the target is T3, PTP MEG2 (Homo sapiens, UniProt P43378).
T3 construct: made in house; host or cells: E. coli BL-21 (pGEX 6P-1)
T3 sequence (P43378 262-593 limits assumed): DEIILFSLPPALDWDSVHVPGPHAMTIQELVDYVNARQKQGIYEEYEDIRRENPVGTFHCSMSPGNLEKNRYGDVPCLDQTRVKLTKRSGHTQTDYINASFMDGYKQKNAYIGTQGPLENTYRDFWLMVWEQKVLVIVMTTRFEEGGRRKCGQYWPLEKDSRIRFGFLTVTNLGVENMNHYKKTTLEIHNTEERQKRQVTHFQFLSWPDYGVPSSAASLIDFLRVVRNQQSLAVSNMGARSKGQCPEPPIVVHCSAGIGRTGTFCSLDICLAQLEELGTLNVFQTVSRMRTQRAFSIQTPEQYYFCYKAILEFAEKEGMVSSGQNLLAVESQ
The note with it: 25° C. The procedure: as §1, §2, §3, §4, §5, §6
The PTP MEG2 cDNA was amplified from human placenta single strand cDNA (Clontech RNA) using the following oligonucleotides: 5′oligo: 5′-[…]-3′ (SEQ ID NO: 8) 3′oligo: 5′-[…]-3′ (SEQ ID NO: 9) and subsequently ligated into pGex 6P-1 Eco RI/Xho I sites.

A further test deals with T4, PTP ALPHA (Homo sapiens, UniProt P18433).
T4 construct: RTPα intracellular domain construct was obtained; made in house; host or cells: E. coli BL-21 (pGEX 3X)
The note with it: 25° C. The procedure:
as §1, §2, §3, §4, §5, §6
RTPα intracellular domain construct was obtained, Schlessinger et al., U.S. Pat. No. 5,888,794, the contents of which are hereby incorporated in their entirety into the present application. The RTPα fragment was cloned into pGEX 3× using the following procedure. The portion from EclX I/Xma III/Eag I (N-terminus blunted by Klenow) to Eco RV was cloned into the Sma I site. The EclX I site is approximately 15 residues downstream of the transmembrane domain.

Setting [1] is: pNPP or FDP as substrate, read-out: PTP IC50 SHP2.
Where [2] appears, read: pNPP or FDP as substrate, read-out: PTP IC50 MEG2.

As usually defined, the IC50 is the midpoint of a concentration-inhibition curve.

Read-outs that look alike come from different tables or passages of the source. Some results are limits rather than exact numbers.

T2 sequence (P23469 80-393 limits assumed): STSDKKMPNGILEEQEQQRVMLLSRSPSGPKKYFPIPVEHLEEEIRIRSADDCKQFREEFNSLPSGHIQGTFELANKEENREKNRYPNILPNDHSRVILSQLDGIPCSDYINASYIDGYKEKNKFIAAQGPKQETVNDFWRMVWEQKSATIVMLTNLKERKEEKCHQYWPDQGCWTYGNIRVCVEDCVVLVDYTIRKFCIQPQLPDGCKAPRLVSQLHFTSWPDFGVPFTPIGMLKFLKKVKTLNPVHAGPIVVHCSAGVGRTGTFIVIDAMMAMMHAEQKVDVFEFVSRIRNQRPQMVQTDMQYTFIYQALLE

For the compound `O=C(Cc1ccc(CC(=O)Nc2cccc(S(=O)(=O)C(F)(F)F)c2)cc1)Nc1cccc(S(=O)(=O)C(F)(F)F)c1` [Example 22, N-(3-Trifluoromethanesulfonyl-phenyl)-2-{4-[(3-trifluoromethanesulfonyl-phenylcarbamoyl)-methyl]-phenyl}-acetamide], the IC50 at PTP SHP2 (setting [1]) was 16.3 µM; at PTP EPSILON (read-out: PTP IC50 Epilson), 8.3 µM; on PTP MEG2 (setting [2]), 27.5 µM; at PTP ALPHA, more than 100 µM.
For the compound `O=[N+]([O-])c1cc(S(=O)(=O)C(F)(F)F)ccc1Oc1cc(CN2CCOCC2)c(Oc2ccc(S(=O)(=O)C(F)(F)F)cc2[N+](=O)[O-])cc1CN1CCOCC1` [Example 23, 3,6-Bis-(morpholin-4-ylmethyl)-2,5-bis-(2-nitro-4-trifluoromethanesulfonyl-phenoxy)-benzene], the IC50 on PTP SHP2 (setting [1]) was 27.6 µM; at PTP EPSILON (read-out: PTP IC50 Epilson), 2.2 µM; at PTP MEG2 (setting [2]), more than 100 µM; on PTP ALPHA, more than 100 µM.
Take `CN(C)CC(COc1ccc(S(=O)(=O)C(F)(F)F)cc1[N+](=O)[O-])Oc1ccc(S(=O)(=O)C(F)(F)F)cc1[N+](=O)[O-]` (centres unmarked) [Example 24, [2,3-Bis-(2-nitro-4-trifluoromethanesulfonyl-phenoxy)-propyl]-dimethyl-amine]: the IC50 on PTP SHP2 (setting [1]), at PTP EPSILON (read-out: PTP IC50 Epilson), on PTP MEG2 (setting [2]) and on PTP ALPHA was more than 100 µM in each case.
On to `CCNc1ccc(S(=O)(=O)C(F)(F)F)cc1NC(=O)Cc1ccc(S(C)(=O)=O)cc1` [Example 25, N-(2-Ethylamino-5-trifluoromethanesulfonyl-phenyl)-2-(4-methanesulfonyl-phenyl)-acetamide], for which the IC50 at PTP SHP2 (setting [1]) is more than 100 µM; at PTP EPSILON (read-out: PTP IC50 Epilson), 41.4 µM; at PTP MEG2 (setting [2]), 52.6 µM; at PTP ALPHA, more than 100 µM.
Turning to `CCOC(=O)c1cc(Oc2ccc(S(=O)(=O)C(F)(F)F)cc2[N+](=O)[O-])c(C(=O)OCC)cc1O` [Example 26, 2-Hydroxy-5-(2-nitro-4-trifluoromethanesulfonyl-phenoxy)-terephthalic acid diethyl ester], the IC50 at PTP SHP2 (setting [1]) was more than 100 µM; at PTP EPSILON (read-out: PTP IC50 Epilson) it was 6.2 µM; at PTP MEG2 (setting [2]), 90.8 µM; at PTP ALPHA, more than 100 µM.
As to `O=C(O)Cc1ccccc1CC(=O)Nc1cccc(S(=O)(=O)C(F)(F)F)c1` [Example 27, {2-[(3-Trifluoromethanesulfonyl-phenylcarbamoyl)-methyl]-phenyl}-acetic acid], the IC50 on PTP SHP2 (setting [1]) was more than 100 µM; at PTP EPSILON (read-out: PTP IC50 Epilson), 3.8 µM; at PTP MEG2 (setting [2]) it was more than 100 µM; on PTP ALPHA, more than 100 µM.
As to `O=C(O)Cc1cccc(CC(=O)Nc2cccc(S(=O)(=O)C(F)(F)F)c2)c1` [Example 28, {3-[(3-Trifluoromethanesulfonyl-phenylcarbamoyl)-methyl]-phenyl}-acetic acid], the IC50 on PTP SHP2 (setting [1]) is 17.9 µM; at PTP EPSILON (read-out: PTP IC50 Epilson), 3.1 µM; on PTP MEG2 (setting [2]), 33.3 µM; on PTP ALPHA, 36.2 µM.
In the case of `O=C(O)Cc1ccc(CC(=O)Nc2cccc(S(=O)(=O)C(F)(F)F)c2)cc1` [Example 29, {4-[(3-Trifluoromethanesulfonyl-phenylcarbamoyl)-methyl]-phenyl}-acetic acid], the concentration for half-maximal inhibition (IC50) at PTP SHP2 (setting [1]) came to 37 µM; at PTP EPSILON (read-out: PTP IC50 Epilson), 26.1 µM; at PTP MEG2 (setting [2]), 68.3 µM; on PTP ALPHA, 19.3 µM.
Regarding `NC(=O)c1cc(Oc2ccc(S(=O)(=O)C(F)(F)F)cc2[N+](=O)[O-])cc(Oc2ccc(S(=O)(=O)C(F)(F)F)cc2[N+](=O)[O-])c1` [Example 30, 3,5-Bis-(2-nitro-4-trifluoromethanesulfonyl-phenoxy)-benzamide], the IC50 on PTP SHP2 (PTP IC50 SHP2, pNPP or FDP as substrate) is 52.8 µM; at PTP EPSILON (PTP IC50 Epilson) it was 4.3 µM; on PTP MEG2 (PTP IC50 MEG2, pNPP or FDP as substrate), 64.3 µM; on PTP ALPHA it was more than 100 µM.
For `O=C(O)c1cc(Oc2ccc(S(=O)(=O)C(F)(F)F)cc2)cc(Oc2ccc(S(=O)(=O)C(F)(F)F)cc2)c1` [Example 31, 3,5-Bis-(4-trifluoromethanesulfonyl-phenoxy)-benzoic acid], the IC50 came to 5.7 µM on PTP SHP2 (setting [1]), 1.8 µM on PTP EPSILON (read-out: PTP IC50 Epilson), 9.6 µM at PTP MEG2 (setting [2]) and 6 µM on PTP ALPHA.
Consider `O=S(=O)(Nc1ccc(CCc2ccc(NS(=O)(=O)C(F)(F)F)cc2)cc1)C(F)(F)F` [Example 66, 1,2-Bis(4-trifluoromethylsulfonamidophenyl)ethane], for which the IC50 at PTP SHP2 (setting [1]) was 36.6 µM; on PTP EPSILON (read-out: PTP IC50 Epilson), more than 100 µM; on PTP MEG2 (setting [2]), more than 100 µM; at PTP ALPHA it was more than 100 µM.
As for `Cc1cc(NS(=O)(=O)C(F)(F)F)ccc1CCc1ccc(NS(=O)(=O)C(F)(F)F)cc1C` [Example 67, 1,2-Bis(2-methyl-4-trifluoromethylsulfonamidophenyl)ethane], the 50% inhibitory concentration (IC50) was 17 µM at PTP SHP2 (setting [1]), 50.8 µM at PTP EPSILON (read-out: PTP IC50 Epilson), 85.7 µM at PTP MEG2 (setting [2]) and 53.6 µM at PTP ALPHA.
As to `CC(C)(COc1ccc(NS(=O)(=O)C(F)(F)F)cc1)COc1ccc(NS(=O)(=O)C(F)(F)F)cc1` [Example 68, 1,3-Bis(4-trifluoromethylsulfonamidophenoxy)-2,2-dimethylpropane], the IC50 on PTP SHP2 (setting [1]) stood at 6.2 µM; on PTP EPSILON (read-out: PTP IC50 Epilson), 37 µM; at PTP MEG2 (setting [2]) it was 34.4 µM; on PTP ALPHA it was 27 µM.
With `O=S(=O)(Nc1ccc(OCCCOc2ccc(NS(=O)(=O)C(F)(F)F)cc2)cc1)C(F)(F)F` [Example 69, 1,3-Bis(4-trifluoromethylsulfonamidophenoxy)propane], the 50% inhibitory concentration (IC50) at PTP SHP2 (setting [1]) was 20.3 µM; at PTP EPSILON (read-out: PTP IC50 Epilson), 40.7 µM; on PTP MEG2 (setting [2]), more than 100 µM; on PTP ALPHA it was 31 µM.
